Residues, ends and D or L forms follow the SMILES beside them. *: point of attachment. Fmoc = O=C(OCC1c2ccccc2-c2ccccc21)*
experiment: Mouse ribonucleotide reductase (mRR) activity was determined by relative dissociation constant which was assayed for binding activity to mR1

Compound | Relative Kd
O=C(N[C@@H](Cc1c[nH]c2ccccc12)C(=O)N[C@@H](Cc1ccccc1)C(=O)N[C@@H](Cc1ccccc1)C(=O)O)OCC1c2ccccc2-c2ccccc21 (Fmoc-Trp-Phe-Phe-OH) | 1
O=C(N[C@H](C(=O)O)c1ccccc1)OCC1c2ccccc2-c2ccccc21 | 31
CC(=O)N[C@@H](Cc1ccccc1)C(=O)N[C@H](C(=O)N[C@@H](CC(C)C)C(=O)N[C@@H](CC(=O)O)C(=O)N[C@@H](C)C(=O)N[C@@H](CC(=O)O)C(=O)N[C@@H](Cc1ccccc1)C(=O)O)[C@@H](C)O (Ac-FTLDADF-OH) | 1

The next lines start with the values.

Relative Kd | Compound
38 | CC(C)C[C@H](NC(=O)OCC1c2ccccc2-c2ccccc21)C(=O)O
22 | O=C(N[C@@H](Cc1ccccc1)C(=O)O)OCC1c2ccccc2-c2ccccc21
18 | O=C(N[C@@H](Cc1c[nH]c2ccccc12)C(=O)O)OCC1c2ccccc2-c2ccccc21

From ChEMBL document CHEMBL1135053, “Affinity-driven selection of tripeptide inhibitors of ribonucleotide reductase” (Bioorg Med Chem Lett, 2002)
